The results in this text go back to patent US20080132554A1, “CRYSTAL FORM OF 2-(3-FLUORO-4-HYDROXYPHENYL)-7-VINYL-1,3-BENZOXAZOL-5-OL” (WYETH, priority 2006, published 2008).

A short description of this data set: Conversion of the crystal form when suspended and stirred in solvent. To be noted: room temperature, seven days. The format is physicochemical. The source says: The anhydrate crystal form (Form D) can be converted to other crystal forms under suitable conditions.

Structures are written as SMILES.

Take `C=Cc1cc(O)cc2nc(-c3ccc(O)c(F)c3)oc12` [Form D, 2-(3-fluoro-4-hydroxyphenyl)-7-vinyl-1,3-benzoxazol-5-ol]: the “crystal form conversion after suspension and stirring” value reads like this: (in acetone) “another anhydrate crystal form is obtained”; (in ethanol) “another anhydrate crystal form is obtained”; (in methanol) “another anhydrate crystal form is obtained”; (in water) “most of the anhydrate crystal form is converted to a hydrate crystal form”.
